Assay results as given in PMC4779956 (Journal of medicinal chemistry, 2015).
Each block holds one compound with its values, some of them ahead of it.

Columns and labels:
ERα [1] = biological target: T1, ERα (Homo sapiens, UniProt P03372); assay: ERE-luciferase reporter assay; assay type: cell-based; conditions: for Efficacy (% E2): MCF-7:ws8 cells, normalized to Ctrl (0%) and E2 1 nM (100%)
T1 sequence (P03372 1-595): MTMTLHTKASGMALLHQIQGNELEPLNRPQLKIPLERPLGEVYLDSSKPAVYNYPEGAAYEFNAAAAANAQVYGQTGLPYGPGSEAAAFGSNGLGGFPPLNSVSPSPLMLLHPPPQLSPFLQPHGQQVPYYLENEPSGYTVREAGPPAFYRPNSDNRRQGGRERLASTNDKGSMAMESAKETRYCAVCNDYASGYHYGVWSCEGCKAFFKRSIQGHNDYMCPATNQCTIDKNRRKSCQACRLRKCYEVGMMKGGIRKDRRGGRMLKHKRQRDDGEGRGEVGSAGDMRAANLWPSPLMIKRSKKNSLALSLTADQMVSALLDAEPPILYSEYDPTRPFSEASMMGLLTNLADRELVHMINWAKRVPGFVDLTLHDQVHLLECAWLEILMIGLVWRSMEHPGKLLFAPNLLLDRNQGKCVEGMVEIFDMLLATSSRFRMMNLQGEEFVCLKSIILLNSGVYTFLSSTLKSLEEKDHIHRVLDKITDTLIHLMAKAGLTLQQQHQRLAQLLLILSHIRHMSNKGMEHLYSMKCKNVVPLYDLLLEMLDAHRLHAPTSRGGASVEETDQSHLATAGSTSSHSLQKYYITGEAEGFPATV

MCF-7:5C cells = assay: MCF-7:5C cell viability assay; assay type: cell-based, human
T47D:A18/PKCα tumors [2] = assay: T47D:A18/PKCα tamoxifen-resistant xenograft; assay type: in vivo, mice; conditions: 100 mg/kg oral gavage daily, within two weeks
ERα [3] = biological target: T1, ERα; assay: Antagonism of E2-induced ERE-luciferase activation; assay type: cell-based; conditions: MCF-7:ws8, in presence of 0.1 nM E2, ShERPA 100-500 nM, 18 h
ERα-LBD/SRC3 complex [4] = biological target: T2, ERα-LBD/SRC3 complex (Homo sapiens, UniProt P03372); assay: TR-FRET ligand titration in presence of 10 nM E2; assay type: biochemical; conditions: in presence of 10 nM E2, 100 nM SRC3
T2 sequence (P03372 311-547 limits assumed): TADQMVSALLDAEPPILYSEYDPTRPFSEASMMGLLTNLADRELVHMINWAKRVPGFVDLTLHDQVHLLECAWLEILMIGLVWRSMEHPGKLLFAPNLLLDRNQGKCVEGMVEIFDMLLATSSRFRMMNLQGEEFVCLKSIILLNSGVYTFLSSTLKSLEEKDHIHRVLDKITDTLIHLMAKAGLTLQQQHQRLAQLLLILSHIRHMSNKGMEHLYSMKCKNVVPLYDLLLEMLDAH
T2 sequence (Q9Y6Q9 627-829 partner limits assumed): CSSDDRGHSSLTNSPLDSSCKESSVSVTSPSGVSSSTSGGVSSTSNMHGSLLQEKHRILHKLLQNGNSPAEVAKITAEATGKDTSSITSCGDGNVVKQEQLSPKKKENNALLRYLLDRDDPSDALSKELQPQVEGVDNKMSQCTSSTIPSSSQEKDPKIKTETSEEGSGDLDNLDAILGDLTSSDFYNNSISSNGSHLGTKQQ

ERα-LBD/SRC3 complex [5] = biological target: T2, ERα-LBD/SRC3 complex; assay: TR-FRET SRC3 titration; assay type: biochemical; conditions: 20 μM ligand
[6] = Uterine weight in xenograft study; assay type: in vivo, mice; conditions: T47D:A18/PKCα xenograft study, 100 mg/kg oral daily
T47D:A18/PKCα tumors [7] = conditions: T47D:A18/PKCα model; cited from earlier work
T47D:A18-TAM1 = T47D:A18-TAM1 model; cited from earlier work
[8] = T47D:A18/PKCα xenograft study; cited from earlier work

Compound: Cc1ccc(C(=O)c2c(-c3ccc(O)cc3)sc3cc(O)ccc23)cc1 [Compound 14a]
Efficacy (% E2) (ERα [1]): 100 % E2

Compound: O=C(c1ccc(C(F)(F)F)cc1)c1c(-c2ccc(F)cc2)sc2cc(O)ccc12 [Compound 14b, (2-(4-fluorophenyl)-6-hydroxybenzo[b]thiophen-3-yl)(4-(trifluoromethyl)phenyl)methanone]
Efficacy (% E2) (ERα [1]): 100 % E2

Compound: O=C(c1ccc(C(F)(F)F)cc1)c1c(-c2ccc(Cl)cc2)sc2cc(O)ccc12 [Compound 14c, (2-(4-chlorophenyl)-6-hydroxybenzo[b]thiophen-3-yl)(4-(trifluoromethyl)phenyl)methanone]
Efficacy (% E2) (ERα [1]): 100 % E2

Compound: Oc1ccc(Oc2c(-c3ccc(F)cc3)sc3cc(O)ccc23)cc1 [Compound 19, 2-(4-fluorophenyl)-3-(4-hydroxyphenoxy)benzo[b]thiophen-6-ol]
Efficacy (% E2) (ERα [1]): 100 % E2

Compound: C#Cc1ccc(C(=O)c2sc3cc(O)ccc3c2-c2ccc(F)cc2)cc1 [Compound 23, (4-ethynylphenyl)(3-(4-fluorophenyl)-6-hydroxybenzo[b]thiophen-2-yl)methanone]
Tumor size versus control tumors (T47D:A18/PKCα tumors [2]): half the size of control tumors
Antagonism of E2 induced ERE activation (ERα [3]): dose dependent reduction in E2 luciferase activity
Effect on FRET signal on ligand titration (ERα-LBD/SRC3 complex [4]): reduced FRET signal
EC50 (ERα [1]): 5 nM
Efficacy (% E2) (ERα [1]): 65 % E2
Maximal FRET signal relative to E2-liganded ERα-LBD/SRC3 complex (ERα-LBD/SRC3 complex [5]): less than 50%

Compound: Oc1ccc(Oc2sc3cc(O)ccc3c2-c2ccc(F)cc2)cc1 [Compound 30a, 3-(4-fluorophenyl)-2-(4-hydroxyphenoxy)benzo[b]thiophen-6-ol]
Antagonism of E2 induced ERE activation (ERα [3]): dose dependent reduction in E2 luciferase activity
Effect on FRET signal on ligand titration (ERα-LBD/SRC3 complex [4]): reduced FRET signal
Efficacy (% E2) (ERα [1]): 60 % E2
Xenograft tumor regression (T47D:A18/PKCα tumors [7]): dramatic regression
Maximal FRET signal relative to E2-liganded ERα-LBD/SRC3 complex (ERα-LBD/SRC3 complex [5]): less than 50%
Xenograft tumor regression (T47D:A18-TAM1): dramatic regression
Uterine weight [8]: not accompanied by a significant increase in uterine weight

Compound: C[C@]12CC[C@@H]3c4ccc(O)cc4CC[C@H]3[C@@H]1CC[C@@H]2O [Compound E2, estradiol, reference compound]
Reduction of cell viability compared to vehicle control (MCF-7:5C cells; 9 days): approximately 60%

Now from value to compound, other results behind:

Efficacy (% E2) (ERα [1]): 100 % E2
Compound: CS(=O)(=O)c1ccc(C(=O)c2sc3cc(O)ccc3c2-c2ccc(F)cc2)cc1 [Compound 21a, (3-(4-fluorophenyl)-6-hydroxybenzo[b]thiophen-2-yl)(4-(methylsulfonyl)phenyl)methanone]

Efficacy (% E2) (ERα [1]): 100 % E2
Compound: O=C(c1ccc(O)cc1)c1sc2cc(O)ccc2c1-c1ccc(F)cc1 [Compound 21b, (3-(4-fluorophenyl)-6-hydroxybenzo[b]thiophen-2-yl)(4-hydroxyphenyl)methanone]

Efficacy (% E2) (ERα [1]): 100 % E2
Compound: O=C(c1sc2cc(O)ccc2c1-c1ccc(F)cc1)C1CCCCC1 [Compound 21g, Cyclohexyl(3-(4-fluorophenyl)-6-hydroxybenzo[b]thiophen-2-yl)methanone]
Inhibition of cell growth relative to E2 % (MCF-7:5C cells; 10 nM, 9 day, control 0 %, E2 100 %, 0.01 µM): 100%

Efficacy (% E2) (ERα [1]): 85 % E2
Compound: O=C(c1ccc(C(F)(F)F)cc1)c1sc2cc(O)ccc2c1-c1ccc(F)cc1 [Compound 26a, (3-(4-fluorophenyl)-6-hydroxybenzo[b]thiophen-2-yl)(4-(trifluoromethyl)phenyl)methanone]
Tumor size versus control tumors (T47D:A18/PKCα tumors [2]): half the size of control tumors
Uterine weight versus vehicle control [6]: no significant increase in uterine weight compared to vehicle control mice

Efficacy (% E2) (ERα [1]): 100 % E2
Compound: N#Cc1ccc(C(=O)c2sc3cc(O)ccc3c2-c2ccc(F)cc2)cc1 [Compound 26b, 4-(3-(4-fluorophenyl)-6-hydroxybenzo[b]thiophene-2-carbonyl)benzonitrile]

Efficacy (% E2) (ERα [1]): 70 % E2
Compound: Oc1ccc2c(-c3ccc(F)cc3)c(Oc3ccc(Cl)cc3)sc2c1 [Compound 30b, 2-(4-chlorophenoxy)-3-(4-fluorophenyl)benzo[b]thiophen-6-ol]
Antagonism of E2 induced ERE activation (ERα [3]): dose dependent reduction in E2 luciferase activity

Efficacy (% E2) (ERα [1]): 100 % E2
Compound: Oc1ccc2c(-c3ccc(F)cc3)c(Oc3ccc(F)cc3)sc2c1 [Compound 30c, 2-(4-fluorophenoxy)-3-(4-fluorophenyl)benzo[b]thiophen-6-ol]

Efficacy (% E2) (ERα [1]): 100 % E2
Compound: Oc1ccc2c(-c3ccc(F)cc3)c(Oc3ccc(F)c(F)c3)sc2c1 [Compound 30d, 2-(3,4-difluorophenoxy)-3-(4-fluorophenyl)benzo[b]thiophen-6-ol]
